Experimental data published in the supplement of paper PMC10307832.

Legend:
Test in all cases: relative viability (nuclei count vs DMSO), 5 days (fraction); higher = more cells survive
[1] = compound: C1CNCCC1C2=CC(=NN2)C3=CC=NC=C3 + CC(=O)c1c(C)c2cnc(Nc3ccc(N4CCNCC4)cn3)nc2n(C2CCCC2)c1=O [Palbociclib] (partner 0.5 µM)
Method in brief: (§1)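 Medians of duplicate plates are given as relative viability. That measure is the nuclei count in treated wells divided by the count in vehicle wells. Counts were taken on 4× images of lung cancer cell lines in 1536-well plates, 5 days after pin-tool dosing the day after seeding with one drug alone or a fixed anchor-drug dose plus five library-drug doses (not always all listed) in √10 steps.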

[2] = compound: C1CNCCC1C2=CC(=NN2)C3=CC=NC=C3 + CC(C)C[C@H](NC(=O)[C@H](Cc1ccccc1)NC(=O)c1cnccn1)B(O)O [Bortezomib] (partner 0.002 µM)
Method in brief: as §1

[3] = compound: C[C@@H](N)c1ccc(C(=O)Nc2ccnc3[nH]ccc23)cc1 + C[C@]1(O)C[C@@H](c2nc(-c3ccc4ccc(-c5ccccc5)nc4c3)c3c(N)nccn32)C1 [Linsitinib] (partner 1 µM)
Method in brief: as §1

[4] = compound: O[C@H]1CC[C@H](Nc2ncc3nc(Nc4c(F)cc(F)cc4F)n([C@H]4CCOC4)c3n2)CC1 [Tanzisertib] + COc1cccc2cc(-c3nc([C@H]4CC[C@H](C(=O)O)CC4)n4ncnc(N)c34)[nH]c12 [OSI-027] (partner 0.5 µM)
Method in brief: as §1

Cell Line | relative viability ([1]; first compound 0.08 µM) | relative viability ([1]; first compound 0.8 µM) | relative viability ([1]; first compound 2.53 µM) | relative viability ([1]; first compound 8 µM) | relative viability ([2]; first compound 0.08 µM) | relative viability ([2]; first compound 0.8 µM) | relative viability ([2]; first compound 2.53 µM) | relative viability ([2]; first compound 8 µM) | relative viability ([3]; first compound 0.04 µM) | relative viability ([3]; first compound 0.1265 µM) | relative viability ([3]; first compound 0.4 µM) | relative viability ([3]; first compound 1.265 µM) | relative viability ([3]; first compound 4 µM) | relative viability ([4]; first compound 0.08 µM) | relative viability ([4]; first compound 0.253 µM) | relative viability ([4]; first compound 0.8 µM) | relative viability ([4]; first compound 2.53 µM) | relative viability ([4]; first compound 8 µM)
HCC-827 | 0.498 | 0.437 | 0.534 | 0.499 | 1 | 1.02 | 1.06 | 1.01 | 0.972 | 0.94 | 0.911 | 0.925 | 0.843 | 0.857 | 0.763 | 0.775 | 0.678 | 0.44
HOP-62 | 0.34 | 0.489 | 0.463 | 0.468 | 0.479 | 0.84 | 1.15 | 0.728 | 0.972 | 0.983 | 0.88 | 1.03 | 0.954 | 0.845 | 0.868 | 0.76 | 0.833 | 0.848
IA-LM | – | – | – | – | 0.911 | 0.934 | 1.08 | 0.864 | 0.801 | 0.665 | 0.847 | 0.904 | 0.759 | – | – | – | – | –
LC-2-ad | 0.532 | 0.548 | 0.462 | 0.437 | 1.07 | 1.52 | 0.994 | 0.944 | 0.849 | 0.922 | 0.877 | 0.83 | 0.615 | 1.02 | 0.744 | 0.911 | 0.915 | 0.606
LCLC-97TM1 | 0.206 | 0.295 | 0.251 | 0.194 | 0.668 | 0.666 | 0.796 | 0.444 | 0.192 | 0.2 | 0.202 | 0.29 | 0.349 | 0.541 | 0.435 | 0.495 | 0.368 | 0.517
LCLC-103H | 0.45 | 0.407 | 0.485 | 0.481 | 1.06 | 0.936 | 1.3 | 1.12 | 1.18 | 1.06 | 1.2 | 1.01 | 1.11 | 0.458 | 0.44 | 0.438 | 0.427 | 0.509
LK-2 | – | 0.658 | 0.801 | 0.735 | – | – | – | – | 0.822 | 0.542 | 0.809 | 0.554 | 0.721 | 0.26 | 0.209 | 0.193 | 0.16 | 0.186
LOU-NH91 | 0.539 | 0.539 | 0.545 | 0.589 | 0.52 | 0.503 | 0.484 | 0.498 | 0.831 | 0.979 | 0.778 | 0.726 | 0.702 | 0.785 | 0.758 | 0.756 | 0.671 | 0.489
LU99A | 0.405 | 0.389 | 0.435 | 0.391 | 1.1 | 1.26 | 1.35 | 1.08 | 0.607 | 0.569 | 0.586 | 0.617 | 0.509 | 0.305 | 0.316 | 0.296 | 0.29 | 0.302
NCI-H358 | 0.14 | 0.126 | 0.143 | 0.136 | – | – | – | – | 0.707 | 0.655 | 0.732 | 0.801 | 0.702 | 0.817 | 0.637 | 0.661 | 0.655 | 0.501
NCI-H522 | 0.949 | 1.1 | 0.945 | 1.02 | – | – | – | – | – | – | – | – | – | 0.802 | 0.831 | 0.748 | 0.696 | 0.626
NCI-H596 | – | – | – | – | 1 | 1.06 | 1.12 | 1.16 | 1.06 | 1.05 | 1.22 | 1.09 | 1.01 | 0.779 | 0.666 | 0.766 | 0.63 | 0.555
NCI-H1299 | – | – | – | – | 1.02 | 1.01 | 1.02 | 0.999 | 0.945 | 0.977 | 0.939 | 0.956 | 0.85 | – | – | – | – | –
NCI-H1395 | 0.652 | 0.587 | 0.644 | 0.613 | – | – | – | – | 1.05 | 1.14 | 1.24 | – | 0.878 | 0.697 | 0.714 | 0.622 | 0.692 | 0.518
NCI-H1563 | – | – | – | – | 0.744 | 0.853 | 0.917 | 0.977 | 1.25 | 1.16 | 1.14 | 1.13 | 1.27 | 0.789 | 0.731 | 0.722 | 0.731 | 0.704
NCI-H1623 | – | – | – | – | – | – | – | – | – | – | – | – | – | 0.495 | 0.448 | 0.453 | 0.437 | 0.432
NCI-H1648 | 0.266 | 0.352 | – | 0.243 | – | – | – | – | – | – | – | – | – | 0.275 | 0.245 | 0.239 | 0.319 | 0.223
NCI-H1650 | 0.365 | 0.315 | 0.379 | 0.343 | 0.212 | 0.184 | 0.214 | 0.204 | – | – | – | – | – | 0.644 | 0.876 | 0.735 | 0.539 | 0.52
NCI-H1703 | – | – | – | – | 0.502 | 0.334 | 0.351 | 0.366 | 0.695 | 0.964 | 0.54 | – | 0.536 | – | – | – | – | –
NCI-H1793 | 0.296 | – | 0.329 | 0.364 | – | – | – | – | 1.02 | 0.878 | 0.83 | – | 0.787 | 0.27 | 0.262 | 0.285 | 0.292 | 0.197
NCI-H1944 | 0.267 | 0.326 | 0.353 | 0.359 | – | – | – | – | 1.28 | 1.16 | 1.17 | – | 0.835 | 0.4 | 0.393 | 0.426 | 0.389 | 0.338
NCI-H2170 | 0.36 | 0.454 | 0.407 | 0.4 | – | – | – | – | – | – | – | – | – | 0.765 | 0.771 | 0.729 | 0.735 | 0.588
NCI-H2342 | 0.486 | 0.545 | 0.587 | 0.556 | – | – | – | – | – | – | – | – | – | 0.663 | 0.718 | 0.571 | 0.537 | 0.583
SK-MES-1 | 0.308 | 0.316 | 0.37 | 0.353 | – | – | – | – | 1.06 | 0.996 | 0.976 | 0.768 | 0.815 | 0.677 | 0.588 | 0.597 | 0.591 | 0.501
SW 900 | 0.551 | – | 0.584 | 0.561 | – | – | – | – | – | – | – | – | – | 0.644 | 0.588 | 0.511 | 0.866 | 0.556
